These results are taken from US6149937A, “Liposome encapsulated amphiphilic drug compositions” (priority 1996, dated 2000).

A short description of data set [1]: Crystals in liposomal BP^0 formulations. In kind it is physicochemical. As for the experimental part: These films were hydrated by 1 ml buffer at pH 8.1 and suspended as MLVs with bupivacaine crystals inside and outside the phospholipid […] by freeze-etching electron microscopy. […] This film was suspended as MLVs in 1 ml buffer pH 8.1. […] No crystals were detected from the ratio 17 and above (Table VII).

A short description of data set [2]: Release of bupivacaine from the liposomal BP^0 formulation at pH 7.4. The format is physicochemical.
Data set [3] in a line: Entrapment of BP^+ into MLVs. In kind it is physicochemical. The conditions noted are these: for encapsulation efficiency: EPC/BP^+ 6, pH 6.5. As for the experimental part:
The bupivacaine concentration was measured by UV spectrophotometry at 271.6 nm. After extraction of BP^+ in chloroform with EPC, 27.5 mg of cholesterol were added thereto. After evaporation of the organic solvent under an inert atmosphere and drying of the lipid film, hydration was carried out at pH 6.5. The encapsulation efficiency was measured by UV spectrophotometry at 271.6 nm.

A short description of data set [4]: Rate of release of BP^+ from MLVs at pH 7.4. The format is physicochemical. As for the experimental part: A further preparation of liposomal BP^+ pH 6.5 prepared as described above was inserted into a dialysis bag (5 ml containing 353.25 mg EPC and 25 mg BP^+). The bag was immersed in 145 ml PBS pH 7.4 with a renewal rate of 23 ml/hour. Samples of the pH 7.4 medium were harvested at different times and the concentration of bupivacaine was measured by UV spectrophotometry.

The conditions of data set [5]: not told.
The conditions of data set [6]: cited from earlier work; for animal or human results of liposome association: lipid-layer encapsulated.
For data set [7] the following is noted: cited from earlier work.
The conditions of data set [8]: cited from earlier work. This is another data set of the same source.
The conditions of data set [9]: pH 7.8.
Experiment in data set [10]: not given
The source holds these as a separate data set.

The conditions of data set [11]: cited from earlier work. The source holds these as a separate data set.
For data set [12] the following is noted: cited from earlier work. The source holds these as a separate data set.
A short description of data set [13]: MP^0 release from MLVs (dialysis bag, PBS pH 7.4). The format is physicochemical.
Data set [14] is described as follows: Entrapment of MP^+ into MLVs. The format is physicochemical. The conditions noted are these: EPC/morphine 98, pH 4.5, n=5, referred to 1 mg initially dissolved.
For data set [15] the following is noted: pH 7.4, 37° C.
For data set [16] the following is noted: EPC/oxine 4.8, pH 7.4.
For data set [17] the following is noted: 10 ml PBS pH 7.4.
Data set [18] relates to bacteria. The conditions noted are these: References 30-33; listed as oxine; cited from earlier work.
The nature of data set [19]: Entrapment of tin(II) dioxinate into MLVs. The format is physicochemical. As for the experimental part: Egg yolk phosphatidylcholine (14.4 mg, 18.3 μmol) and cholesterol (5.6 mg, 13.7 μmol) were dissolved in chloroform with 0.1, 0.2, 0.3, 0.4, 0.5 mg (1.2 μmol) and 0.6 mg tin(II) dioxinate. After evaporation of the solvent, hydration occurred with NaCl 150 mM 1 ml. The MLVs thus prepared were washed 5 times in order to discard free tin(II) dioxinate.
The number of tin(II) dioxinate molecules inserted into liposomes increased with the number of SnOx2 molecules present in the preliposomal lipid film. Liposomal saturation occurred for a number of moles averaging 1.23 μmoles SnOx2 inserted into 18.3 μmoles EPC (EPC/SnOx2 mole ratio of 15) with an encapsulation efficiency of 30% for MLVs.

Data set [20] can be described thus: Release of tin(II) dioxinate from MLVs at pH 7.4. In kind it is physicochemical.
Experiment in data set [21]: not given
This is another data set of the same source.

Data set [22] is described as follows: Cell membrane permeation predicted by TAMMO combined with liposomal entrapment and release assays. The note with it: concluded from TAMMO and liposome assays.
Setting [23] is: formulation with crystals, pH 7.4.

Like-named read-outs stand apart in the source and are kept apart here. *1 amine or outer side, *2 acyl side, *3 side chain or, on linkers, in order; H or OH if unused. Where a SMILES comes first, the peptide text is derived from it. Bridges are numbered along the chain shown (N, C = ends). Roman numbers before positions name the chains, in order. [ ]: non-standard residue; d: D form. Actinocin(9to1) = Cc1c2oc3c(C)ccc(C(=O)[*:1])c3nc-2c(C(=O)[*:2])c(N)c1=O; NMeV = CN[CH](C(=O)O)C(C)C; Sar = CNCC(=O)O

For the compound `CCCCN1CCCCC1C(=O)Nc1c(C)cccc1C` (centres unmarked) [BP^0], the “Crystals” value in [1] (EPC/BP ratio 17 and above) is given as “No crystals”; in data set [1] (EPC/BP ratio up to 16) it was “presence of bupivacaine crystals”; in data set [1] (EPC/BP^0 ratio 13 or above) it was “without crystals”; in [1] (EPC/BP^0 ratio 17), 0; in [1] (EPC/BP^0 ratio 20), 0; in data set [1] (EPC/BP^0 ratio 22), 0. Besides, the Crystals in data set [1] (EPC/BP^0 ratio 25) turned out to be 0. In addition, the Release is 24 to 48 h in data set [2] (Table III, PL/X 5) and 72 h in data set [4] (Table III, PL/X 5). Moreover, the “release compared with crystal-containing formulation” value in [2] (crystal-free) was “slower”. This compound showed a peak concentration in data set [2] (crystal-free, 230.56 mg EPC, 5 mg BP^0, pH 7.4) of 5 to 8 µg/mL. The “time to complete clearance” value in [2] (crystal-free, pH 7.4) was found to be 3 days. Further, the time to peak in data set [2] (crystal-free, pH 7.4) was 6 h. This compound also registered a maximal concentration in data set [2] (formulation with crystals, 14.4 mg EPC, 5 mg BP^0, pH 7.4, 37° C.) of 7 to 8 µg/mL. Moreover, the “time to maximal concentration” value in data set [2] (setting [23]) is 6 to 12 h; in [4] (1 ml formulation, pH 7.4), 6 to 12 h. Besides, the “time to release of the whole amount” value in data set [2] (setting [23]) amounted to 2 days. For the same compound, the “AE (encapsulation efficiency)” value in [3] (Table III, PL/X 5) is 75%. The values for the encapsulation efficiency in data set [3] (after 2 hours) and in [3] (after 24 hours) were 60±1% and 74±0.5%, respectively. The “BP^+ inserted into MLVs” value in data set [3] (from 5 mg BP^+, 70.65 mg EPC) turned out to be 3.7 mg. Further, the duration of release in [4] (1 ml formulation, pH 7.4) was 24 to 48 h; in [4] (5 ml formulation in dialysis bag, pH 7.4) it was 72 h. The “rapid transfer of unencapsulated bupivacaine” value in data set [4] (6 hour, 5 ml in dialysis bag, pH 7.4) came to 25%. Also, the “ability to cross cell membranes” value in [5] is “able to cross cell membranes”. Moreover, in data set [6] (BP^+ in liposomal aqueous phase, Reference 13), the “sensory block” value was “prolongation of the sensory block”. The “motor block” value in [6] (BP^+ in liposomal aqueous phase, Reference 29) was “outlasted the analgesic action”.

Consider `CCCCN1CCCCC1C(=O)Nc1c(C)cccc1C` (centres unmarked) [Bupivacaine, bupivacaine], for which the “animal or human results of liposome association” value in data set [6] is listed as “promising animal or effective human results”. In addition, the “Log Poct” value in data set [7] (Table II) is 1.4. In addition, the “Log Poct” value in data set [7] (Table III) was 3.6. The “log of the partition coefficient between water and octanol” value in data set [7] (clonidine: octanol/buffer pH 7.4) is 1.8. Also, in data set [8] (human, in vivo), the “plasma level at which systemic toxicity becomes apparent” value is about 1600 ng/mL and the therapeutic concentration is 1 µg/mL. Also, the “duration of analgesic action” value in [8] (peripheral nerve blocks) is reported as “up to 12 hours”.

For `Clc1cccc(Cl)c1NC1=NCCN1` [CL^0], the proportion of species came out at 28.5% in data set [9] and 71.5% in data set [9] (listed as CL^+). The “AE (encapsulation efficiency)” value (Table III, PL/X 5) worked out at 14.5%. The compound further registered a Release in data set [10] (Table III, PL/X 5) of 0.5 h.

`CCN(CC)CCOC(=O)c1ccc(N)cc1Cl` [Chlorprocaine, chlorprocaine]: the “Log Poct” value in data set [7] (Table II) is reported as -0.8.

Consider `Clc1cccc(Cl)c1N=C1NCCN1` [Clonidine, clonidine], for which, where the note is “14.4 mg EPC, 0.5 mg CL^0, pH 7.8, n=6”, the encapsulation efficiency is on record as 14.5%±0.4. Also, in [10] (pH 7.4, after 1 hour), the “leakage from vesicles after 1 hour” value was “Almost all”. In addition, the “Log Poct” value in [7] (octanol/water) is recorded as 1.59. For the same compound, in data set [11], the “pK / pKa” value is listed as 8.2. Further, the “solubility in organic solvents” value in data set [12] is listed as “soluble in octanol when uncharged”. The “solubility in aqueous medium” value in data set [12] (water or acidic solution) is “highly soluble in acidic solution as a cation”. Moreover, in data set [8] (human, in vivo), the “duration of hypotensive action” value is 1 days.

Turning to `CCCN(CC)C(CC)C(=O)Nc1c(C)cccc1C` (centres unmarked) [Etidocaine, etidocaine], in data set [7] (octanol/water), the “Log Poct” value was 2.1.

For the compound `CN1CC[C@]23c4c5ccc(O)c4O[C@H]2[C@@H](O)C=C[C@H]3[C@H]1C5` [MP^0], the “crystals in the dialysis bag at the end of release” value in data set [13] (EPC/MP^0 10) is listed as “No crystals”. The “Release” value is “sustained and prolonged” in [13] (EPC/MP^0 10, 26 and 52); 48 h in data set [13] (Table III, PL/X 10); 30 h in [13] (Table III, PL/X 26); 24 h in data set [13] (Table III, PL/X 52). In addition, the duration of release was determined as 48 h in [13] (EPC/MP^0 10, pH 7.4); 30 h in data set [13] (EPC/MP^0 26, pH 7.4); 24 h in data set [13] (EPC/MP^0 52, pH 7.4). The compound further returned an encapsulation in data set [14] of 31.2±2.1%. Besides, the “duration of slow decrease of concentration” value in [15] came out at 3 days. Besides, in data set [15], the “time to maximal concentration” value worked out at 1 h.

On to `CCOC(=O)C1(c2ccccc2)CCN(C)CC1` [Meperidine, meperidine], for which the “Log Poct” value in data set [7] (octanol/water) is recorded as 1.3.

Consider `Cc1cccc(C)c1NC(=O)C1CCCCN1C` (centres unmarked) [Mepivacaine, mepivacaine], for which, in [7] (octanol/water), the “Log Poct” value was -0.1. In data set [11] (Table II), the pKs is 7.76.

On to `CN1CC[C@]23c4c5ccc(O)c4O[C@H]2[C@@H](O)C=C[C@H]3[C@H]1C5` [Morphine, morphine], for which, in data set [8] (intramuscular, epidural or intrathecal), the duration of action is at least 12 h.

Turning to `Oc1cccc2cccnc12` [Oxine, 8-hydroxyquinoline], the “oxine entrapped in MLVs” value in data set [16] is on record as 50%; in data set [16] (from 0.7 mg), 0.35 mg. Also, in [17], the “time of release of a bulk of the liposomal compound” value came out at 20 min. Moreover, the partition coefficient octanol/water in data set [7] (not logarithmic) is recorded as 67. The “bactericidal activity (words)” value in data set [18] was “acts as a bactericidal agent by crossing the bacterial cell membrane”.

In the case of `CCCNC(C)C(=O)Nc1ccccc1C` (centres unmarked) [Prilocaine, prilocaine], the “Log Poct” value in data set [7] (Table II) is given as -0.05.

As to `CCN(CC)CCOC(=O)c1ccc(N)cc1` [Procaine, procaine], the “Log Poct” value in data set [7] (octanol/water) was -1.7.

For `CCCCNc1ccc(C(=O)OCCN(C)C)cc1` [Tetracaine, tetracaine], the “Log Poct” value in [7] (octanol/water) is 0.6.

Regarding `Cc1c2oc3c(C)ccc(C(=O)NC4C(=O)NC(C(C)C)C(=O)N5CCCC5C(=O)N(C)CC(=O)N(C)C(C(C)C)C(=O)OC4C)c3nc-2c(C(=O)NC2C(=O)NC(C(C)C)C(=O)N3CCCC3C(=O)N(C)CC(=O)N(C)C(C(C)C)C(=O)OC2C)c(N)c1=O` (centres unmarked) [actinomycin D] (I: TVP[Sar][NMeV] / II: TVP[Sar][NMeV]; ester I:1-I:C, II:1-II:C; linker I:N-II:N via Actinocin(9to1); configuration not given here), in data set [6], the “animal or human results of liposome association” value is listed as “promising animal or effective human results”.

Turning to tin(II) dioxinate, in data set [19] (18.3 μmoles EPC), the “SnOx2 inserted at liposomal saturation” value is about 1.23 µmol. For the same compound, in [19] (MLVs), the “EPC/SnOx2 mole ratio at saturation” value is on record as 15. Besides, the encapsulation efficiency in data set [19] (MLVs, EPC/SnOx2 15) came to 30%. Moreover, in [19] (Table III, PL/X 6), the “AE (encapsulation efficiency)” value was 30%. Moreover, the Release in [20] (Table III, PL/X 6) is over 72 h; in [20] (pH 7.4, for at least one week), “no release”. Besides, the figures for the “limit of solubility in chloroform” value in data set [21] (chloroform) and in data set [21] (chloroform with epc) were 400 µM and 4100 µM, respectively. In addition, the “ability to cross cell membranes” value in [22] was “unable to cross the cell membrane”.
